Test results from the NIST ThermoML archive (doi:10.1021/je4009415).
Numbers after ± are expanded uncertainties.

Experiments:
[1] = xn = mol fraction of the nth substance listed; settings: Liquid, Vibrating tube method
[2] = refractive index (Na D-line) (dimensionless); settings: 298.15 K; 101.33 kPa; Liquid; Standard Abbe refractometry
[3] = Liquid; for mass density: Vibrating tube method; for vapor or sublimation pressure: Ebulliometric method (Recirculating still)

CCOC(=O)CC [ethyl propanoate] + CCCCC
mass density [kg/m3], [1]
Settings	288.15 K	298.15 K
x1 = 0.0503	643.39 ± 0.28	–
x1 = 0.0545	–	634.55 ± 0.28
x1 = 0.1013	–	646.47 ± 0.29
x1 = 0.1017	656.5 ± 0.29	–
x1 = 0.1511	669.25 ± 0.3	–
x1 = 0.1538	–	659.85 ± 0.3
x1 = 0.2025	682.62 ± 0.31	–
x1 = 0.2051	–	673.1 ± 0.31
x1 = 0.254	–	685.81 ± 0.32
x1 = 0.2551	696.41 ± 0.32	–
x1 = 0.3012	708.53 ± 0.33	–
x1 = 0.3038	–	698.8 ± 0.33
x1 = 0.3525	722.09 ± 0.35	–
x1 = 0.3594	–	713.37 ± 0.35
x1 = 0.3947	733.28 ± 0.36	–
x1 = 0.4062	–	725.7 ± 0.36
x1 = 0.4496	747.92 ± 0.38	–
x1 = 0.4575	–	739.37 ± 0.38
x1 = 0.5009	761.7 ± 0.4	–
x1 = 0.5083	–	752.81 ± 0.4
x1 = 0.5519	775.33 ± 0.42	–
x1 = 0.56	–	766.57 ± 0.42
x1 = 0.5987	787.9 ± 0.45	–
x1 = 0.606	–	778.84 ± 0.44
x1 = 0.6449	800.24 ± 0.47	–
x1 = 0.6559	–	792.17 ± 0.47
x1 = 0.6974	814.34 ± 0.5	–
x1 = 0.7061	–	805.64 ± 0.5
x1 = 0.7488	828.17 ± 0.53	–
x1 = 0.7498	–	817.26 ± 0.52
x1 = 0.7974	841.13 ± 0.56	–
x1 = 0.8007	–	830.93 ± 0.56
x1 = 0.8477	854.65 ± 0.6	–
x1 = 0.8535	–	844.98 ± 0.6
x1 = 0.8951	867.4 ± 0.64	–
x1 = 0.9054	–	858.85 ± 0.64
x1 = 0.9482	881.6 ± 0.68	–
x1 = 0.9511	–	871.06 ± 0.67
x1 = 1	895.58 ± 0.72	884.15 ± 0.71

CCCCC [pentane]
Settings	refractive index
[2]	1.3547 ± 0.0005

[3]
Settings	mass density [kg/m3]	vapor or sublimation pressure [kPa]
288.15 K	630.78 ± 0.26	–
298.15 K	620.9 ± 0.26	–
298.91 K	–	70 ± 0.1
299.82 K	–	72.5 ± 0.1
300.77 K	–	75 ± 0.1
301.65 K	–	77.5 ± 0.11
302.52 K	–	80 ± 0.11
303.38 K	–	82.5 ± 0.11
304.22 K	–	85 ± 0.11
305.02 K	–	87.5 ± 0.12
305.81 K	–	90 ± 0.12
306.62 K	–	92.5 ± 0.12
307.37 K	–	95 ± 0.12
308.12 K	–	97.5 ± 0.13
308.87 K	–	100 ± 0.13
309.23 K	–	101.32 ± 0.13
310.28 K	–	105 ± 0.13
311.64 K	–	110 ± 0.14
312.97 K	–	115 ± 0.14
314.26 K	–	120 ± 0.15
315.5 K	–	125 ± 0.16
316.7 K	–	130 ± 0.16
317.87 K	–	135 ± 0.17
319.01 K	–	140 ± 0.17
320.11 K	–	145 ± 0.18
321.17 K	–	150 ± 0.18
322.24 K	–	155 ± 0.19
323.25 K	–	160 ± 0.19
324.26 K	–	165 ± 0.2
325.24 K	–	170 ± 0.2
326.18 K	–	175 ± 0.21
327.12 K	–	180 ± 0.21
328.03 K	–	185 ± 0.22
328.93 K	–	190 ± 0.23
329.8 K	–	195 ± 0.23
330.66 K	–	200 ± 0.24
331.51 K	–	205 ± 0.24
332.34 K	–	210 ± 0.25
333.15 K	–	215 ± 0.25
333.95 K	–	220 ± 0.26
334.73 K	–	225 ± 0.26
335.5 K	–	230 ± 0.27
336.28 K	–	235 ± 0.27
337.02 K	–	240 ± 0.28
337.75 K	–	245 ± 0.29
338.47 K	–	250 ± 0.29
339.19 K	–	255 ± 0.3
339.89 K	–	260 ± 0.3
340.59 K	–	265 ± 0.31
341.27 K	–	270 ± 0.31
341.94 K	–	275 ± 0.32
342.6 K	–	280 ± 0.32

Settings	mass density [kg/m3]
[3], 298.15 K, 101 kPa	620.91 ± 0.26

CCCCCCCCC [nonane] + CCOC(=O)CC
[1], x2 = 0
Settings	mass density [kg/m3]
288.15 K	721.65 ± 0.24
298.15 K	713.85 ± 0.24
308.15 K	705.96 ± 0.25
318.15 K	698.06 ± 0.25
328.15 K	690.17 ± 0.25

CCC(=O)OC [methyl propanoate]
Settings	refractive index
[2]	1.3743 ± 0.0007

[3]
Settings	mass density [kg/m3]	vapor or sublimation pressure [kPa]
288.15 K	921.21 ± 0.89	–
298.15 K	909.1 ± 0.88	–
308.15 K	896.91 ± 0.86	–
318.15 K	884.71 ± 0.84	–
328.15 K	872.22 ± 0.83	–
335.15 K	–	55 ± 0.13
336.38 K	–	57.5 ± 0.14
337.53 K	–	60 ± 0.15
338.61 K	–	62.5 ± 0.15
339.76 K	–	65 ± 0.16
340.79 K	–	67.5 ± 0.16
341.81 K	–	70 ± 0.17
342.79 K	–	72.5 ± 0.17
343.75 K	–	75 ± 0.18
344.68 K	–	77.5 ± 0.18
345.59 K	–	80 ± 0.19
346.49 K	–	82.5 ± 0.19
347.35 K	–	85 ± 0.2
348.2 K	–	87.5 ± 0.21
349.03 K	–	90 ± 0.21
349.83 K	–	92.5 ± 0.22
350.62 K	–	95 ± 0.22
352.34 K	–	100 ± 0.23
352.72 K	–	101.32 ± 0.24
352.75 K	–	101.32 ± 0.61
353.81 K	–	105 ± 0.24
355.23 K	–	110 ± 0.26
356.53 K	–	115 ± 0.27
357.87 K	–	120 ± 0.28
359.16 K	–	125 ± 0.29
360.42 K	–	130 ± 0.3
361.65 K	–	135 ± 0.31
362.8 K	–	140 ± 0.32
363.97 K	–	145 ± 0.33
365.05 K	–	150 ± 0.35
366.15 K	–	155 ± 0.36
367.22 K	–	160 ± 0.37
368.27 K	–	165 ± 0.38
369.26 K	–	170 ± 0.39
370.25 K	–	175 ± 0.4
371.22 K	–	180 ± 0.41
372.2 K	–	185 ± 0.42
373.12 K	–	190 ± 0.43
374.01 K	–	195 ± 0.45
374.9 K	–	200 ± 0.46
375.77 K	–	205 ± 0.47
376.63 K	–	210 ± 0.48
377.52 K	–	215 ± 0.49
378.3 K	–	220 ± 0.5
379.14 K	–	225 ± 0.51
379.96 K	–	230 ± 0.52
380.72 K	–	235 ± 0.53
381.51 K	–	240 ± 0.55
382.25 K	–	245 ± 0.56
383.03 K	–	250 ± 0.57
383.74 K	–	255 ± 0.58
384.47 K	–	260 ± 0.59
385.21 K	–	265 ± 0.6
385.87 K	–	270 ± 0.61
386.61 K	–	275 ± 0.62
387.28 K	–	280 ± 0.64

CCCCCCCCC [nonane]
Settings	refractive index
[2]	1.4032 ± 0.0005

[3]
Settings	mass density [kg/m3]	vapor or sublimation pressure [kPa]
288.15 K	721.65 ± 0.24	–
298.15 K	713.85 ± 0.24	–
308.15 K	705.96 ± 0.25	–
318.15 K	698.06 ± 0.25	–
328.15 K	690.17 ± 0.25	–
423.9 K	–	101.32 ± 0.51
